Measurements published in patent publication US10597388B2, “Pyridazinone herbicides” (FMC CORPORATION, priority 2014, dated 2020).

Tests used:
Assay type in all cases: in vivo
[1] = tested on: galium (catchweed bedstraw, Galium aparine); experiment: Test A greenhouse herbicide test, postemergence; details: for Plant response rating, Galium: 125 g ai/ha, 0 to 100 scale where 0 is no effect and 100 is complete control; for Galium plant response rating: 500 g ai/ha, 0 to 100 scale, 0 is no effect, 100 is complete control
Outline: (§1)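 Plants grown in loam soil/sand blend pots were treated postemergence at 2 to 10 cm height, one- to two-leaf stage, with formulated test chemicals. After approximately 10 d in a greenhouse, injury was rated visually against untreated controls on a 0 to 100 scale (0 no effect, 100 complete control).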

[2] = tested on: blackgrass (Alopecurus myosuroides); experiment: Test A greenhouse herbicide test, postemergence; details: for Plant response rating, Blackgrass: 125 g ai/ha, 0 to 100 scale where 0 is no effect and 100 is complete control; for Blackgrass plant response rating: 500 g ai/ha, 0 to 100 scale, 0 is no effect, 100 is complete control
Outline: as §1

[3] = tested on: ryegrass, Italian (Italian ryegrass, Lolium multiflorum); experiment: Test A greenhouse herbicide test, pre- and postemergence
Outline: (§2)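 Seeds sown in loam–sand blend got a preemergence directed soil spray of compound in non-phytotoxic solvent with surfactant. Postemergence treatment was given at 2–10 cm, one- to two-leaf stage. After ~10 d in greenhouse, injury was rated visually vs untreated controls, 0 (no effect) to 100 (complete control).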

[4] = tested on: pigweed (Amaranthus retroflexus); experiment: as above
Outline: as §2

[5] = tested on: wheat (Triticum aestivum); experiment: as above; details: Postemergence; for Plant response rating, Wheat: 125 g ai/ha, 0 to 100 scale where 0 is no effect and 100 is complete control; for Wheat plant response rating: 500 g ai/ha, 0 to 100 scale, 0 is no effect, 100 is complete control
Outline: as §2

[6] = tested on: oilseed rape (Brassica napus); experiment: Test C greenhouse herbicide test, pre- and postemergence
Source text: (§3) Seeds of plant species selected from blackgrass (Alopecurus myosuroides), ryegrass, Italian (Italian ryegrass, Lolium multiflorum), wheat (winter wheat, Triticum aestivum), galium (catchweed bedstraw, Galium aparine), corn (Zea mays), large crabgrass, large (large crabgrass, Digitaria sanguinalis), foxtail, giant (giant foxtail, Setaria faberii), johnsongrass (Sorghum halepense), lambsquarters (Chenopodium album), morningglory (Ipomoea coccinea), nutsedge, yellow (yellow nutsedge, Cyperus esculentus), pigweed (Amaranthus retroflexus), ragweed (common ragweed, Ambrosia elatior), soybean (Glycine max), barnyardgrass (Echinochloa crus-galli), oilseed rape (Brassica napus), waterhemp (common waterhemp, Amaranthus rudis), and velvetleaf (Abutilon theophrasti) were planted into a blend of loam soil and sand and treated preemergence with test chemicals formulated in a non-phytotoxic solvent mixture which included a surfactant.
(§4) At the same time, plants selected from these crop and weed species and also chickweed (common chickweed, Stellaria media), kochia (Kochia scoparia), and oat, wild (wild oat, Avena fatua), were planted in pots containing Redi-Earth® planting medium (Scotts Company, 14111 Scottslawn Road, Marysville, Ohio 43041) comprising spaghnum peat moss, vermiculite, wetting agent and starter nutrients and treated with postemergence applications of test chemicals formulated in the same manner. Plants ranged in height from 2 to 18 cm (1- to 4-leaf stage) for postemergence treatments. Treated plants and controls were maintained in a greenhouse for 13 to 15 d, after which time all species were compared to controls and visually evaluated. Plant response ratings, summarized in Table C, are based on a scale of 0 to 100 where 0 is no effect and 100 is complete control. A dash (-) response means no test result.

[7] = tested on: pigweed (Amaranthus retroflexus); experiment: as above
Source text: as §3, §4

[8] = tested on: lambsquarters (Chenopodium album); experiment: as above
Source text: as §3, §4

[9] = tested on: ragweed (common ragweed, Ambrosia elatior); experiment: as above
Source text: as §3, §4

[10] = tested on: morningglory (Ipomoea coccinea); experiment: as above
Source text: as §3, §4

[11] = tested on: waterhemp (common waterhemp, Amaranthus rudis); experiment: as above
Source text: as §3, §4

[12] = Postemergence, 125 g ai/ha, 0 to 100 scale where 0 is no effect and 100 is complete control
[13] = Postemergence, 500 g ai/ha, 0 to 100 scale, 0 is no effect, 100 is complete control
[14] = Preemergence, 125 g ai/ha, 0 to 100 scale where 0 is no effect and 100 is complete control
[15] = Preemergence, 500 g ai/ha, 0 to 100 scale, 0 no effect, 100 complete control
[16] = Postemergence, 31 g ai/ha, 0 to 100 scale (0 no effect, 100 complete control)
[17] = Postemergence, 125 g ai/ha, scale 0 to 100, 0 is no effect, 100 is complete control
[18] = Postemergence, 250 g ai/ha, scale 0 to 100, 0 no effect, 100 complete control, 13 to 15 d
[19] = Preemergence, 31 g ai/ha, scale 0 to 100, 0 is no effect, 100 is complete control
[20] = Preemergence, 62 g ai/ha, scale 0 to 100, 0 is no effect, 100 is complete control
[21] = Preemergence, 125 g ai/ha, scale 0 to 100, 0 is no effect, 100 is complete control
[22] = Preemergence, 250 g ai/ha, scale 0 to 100, 0 no effect, 100 complete control
[23] = postemergence, 62 g ai/ha, scale 0 to 100, 0 no effect, 100 complete control

Cc1nn(C)c(=O)c(-c2ccc(F)c3ccccc23)c1O [Compound 41]
Plant response rating, Galium [1]: 80 | Galium plant response rating [1]: 100 | Plant response rating, Blackgrass [2]: 70 | Blackgrass plant response rating [2]: 90 | Plant response rating, Ryegrass, Italian [3, 12]: 100 | Ryegrass, Italian plant response rating [3, 13]: 100 | Ryegrass, Italian plant response rating [3, 14]: 100 | Plant response rating, Ryegrass, Italian [3, 15]: 100 | Plant response rating, Pigweed [4, 12]: 60 | Pigweed plant response rating [4, 13]: 90 | Pigweed plant response rating [4, 14]: 100 | Plant response rating, Pigweed [4, 15]: 100 | Plant response rating, Wheat [5]: 0 | Wheat plant response rating [5]: 80 | Oilseed Rape plant response rating [6, 16]: 0 | Plant response rating, Oilseed Rape [6, 17]: 5 | Plant response rating, Oilseed Rape [6, 18]: 0 | Plant response rating, Oilseed Rape [6, 19]: 5 | Plant response rating, Oilseed Rape [6, 20]: 50 | Plant response rating, Oilseed Rape [6, 21]: 40 | Oilseed Rape plant response rating [6, 22]: 100 | Oilseed Rape plant response rating [6, 23]: 0 | Pigweed plant response rating [7, 16]: 65 | Plant response rating, Pigweed [7, 17]: 75 | Plant response rating, Pigweed [7, 18]: 95 | Plant response rating, Pigweed [7, 19]: 75 | Plant response rating, Pigweed [7, 20]: 100 | Plant response rating, Pigweed [7, 21]: 100 | Pigweed plant response rating [7, 22]: 100 | Pigweed plant response rating [7, 23]: 75 | Lambsquarters plant response rating [8, 16]: 90 | Plant response rating, Lambsquarters [8, 17]: 95 | Plant response rating, Lambsquarters [8, 18]: 98 | Plant response rating, Lambsquarters [8, 19]: 75 | Plant response rating, Lambsquarters [8, 20]: 90 | Plant response rating, Lambsquarters [8, 21]: 100 | Lambsquarters plant response rating [8, 22]: 90 | Lambsquarters plant response rating [8, 23]: 95 | Ragweed plant response rating [9, 16]: 70 | Plant response rating, Ragweed [9, 17]: 95 | Plant response rating, Ragweed [9, 18]: 100 | Plant response rating, Ragweed [9, 19]: 85 | Plant response rating, Ragweed [9, 20]: 85 | Plant response rating, Ragweed [9, 21]: 95 | Ragweed plant response rating [9, 22]: 100 | Ragweed plant response rating [9, 23]: 85 | Morningglory plant response rating [10, 16]: 95 | Plant response rating, Morningglory [10, 17]: 100 | Plant response rating, Morningglory [10, 18]: 98 | Plant response rating, Morningglory [10, 19]: 85 | Plant response rating, Morningglory [10, 20]: 95 | Plant response rating, Morningglory [10, 21]: 95 | Morningglory plant response rating [10, 22]: 98 | Morningglory plant response rating [10, 23]: 95 | Waterhemp plant response rating [11, 16]: 75 | Plant response rating, Waterhemp [11, 17]: 90 | Plant response rating, Waterhemp [11, 18]: 85 | Plant response rating, Waterhemp [11, 19]: 85 | Plant response rating, Waterhemp [11, 20]: 95 | Plant response rating, Waterhemp [11, 21]: 100 | Waterhemp plant response rating [11, 22]: 100 | Waterhemp plant response rating [11, 23]: 75

CCc1sc2ccc(C)cc2c1-c1c(O)c(C)nn(C)c1=O [Compound 47]
Plant response rating, Galium [1]: 90 | Galium plant response rating [1]: 100 | Plant response rating, Blackgrass [2]: 60 | Blackgrass plant response rating [2]: 70 | Plant response rating, Ryegrass, Italian [3, 12]: 70 | Ryegrass, Italian plant response rating [3, 13]: 80 | Ryegrass, Italian plant response rating [3, 14]: 60 | Plant response rating, Ryegrass, Italian [3, 15]: 90 | Plant response rating, Pigweed [4, 12]: 100 | Pigweed plant response rating [4, 13]: 100 | Pigweed plant response rating [4, 14]: 70 | Plant response rating, Pigweed [4, 15]: 100 | Plant response rating, Wheat [5]: 0 | Wheat plant response rating [5]: 0 | Oilseed Rape plant response rating [6, 16]: 0 | Plant response rating, Oilseed Rape [6, 17]: 5 | Plant response rating, Oilseed Rape [6, 18]: 10 | Plant response rating, Oilseed Rape [6, 19]: 0 | Plant response rating, Oilseed Rape [6, 20]: 0 | Plant response rating, Oilseed Rape [6, 21]: 0 | Oilseed Rape plant response rating [6, 22]: 10 | Oilseed Rape plant response rating [6, 23]: 0 | Pigweed plant response rating [7, 16]: 90 | Plant response rating, Pigweed [7, 17]: 98 | Plant response rating, Pigweed [7, 18]: 98 | Plant response rating, Pigweed [7, 19]: 100 | Plant response rating, Pigweed [7, 20]: 100 | Plant response rating, Pigweed [7, 21]: 100 | Pigweed plant response rating [7, 22]: 100 | Pigweed plant response rating [7, 23]: 90 | Lambsquarters plant response rating [8, 16]: 85 | Plant response rating, Lambsquarters [8, 17]: 98 | Plant response rating, Lambsquarters [8, 18]: 85 | Plant response rating, Lambsquarters [8, 19]: 100 | Plant response rating, Lambsquarters [8, 20]: 100 | Plant response rating, Lambsquarters [8, 21]: 100 | Lambsquarters plant response rating [8, 22]: 100 | Lambsquarters plant response rating [8, 23]: 85 | Ragweed plant response rating [9, 16]: 80 | Plant response rating, Ragweed [9, 17]: 98 | Plant response rating, Ragweed [9, 18]: 100 | Plant response rating, Ragweed [9, 19]: 50 | Plant response rating, Ragweed [9, 20]: 85 | Plant response rating, Ragweed [9, 21]: 98 | Ragweed plant response rating [9, 22]: 100 | Ragweed plant response rating [9, 23]: 98 | Morningglory plant response rating [10, 16]: 100 | Plant response rating, Morningglory [10, 17]: 100 | Plant response rating, Morningglory [10, 18]: 100 | Plant response rating, Morningglory [10, 19]: 90 | Plant response rating, Morningglory [10, 20]: 100 | Plant response rating, Morningglory [10, 21]: 100 | Morningglory plant response rating [10, 22]: 95 | Morningglory plant response rating [10, 23]: 100 | Waterhemp plant response rating [11, 16]: 90 | Plant response rating, Waterhemp [11, 17]: 100 | Plant response rating, Waterhemp [11, 18]: 100 | Plant response rating, Waterhemp [11, 19]: 100 | Plant response rating, Waterhemp [11, 20]: 98 | Plant response rating, Waterhemp [11, 21]: 100 | Waterhemp plant response rating [11, 22]: 100 | Waterhemp plant response rating [11, 23]: 75
